Laboratory results from paper PMC5216056 (Nature Communications, 2017).
Where “and” joins values, the source holds several entries; their conditions need not be identical. Equal values may be shown once.

Tests used:
hCB1R = target: T1, hCB1R (Homo sapiens, UniProt P21554); test: cell-based; assay type: cell-based
T1 construct: host or cells: CHO

Rat recombinant TRPV2 = target: T2, Rat recombinant TRPV2 (Rattus norvegicus, UniProt Q9WUD2); test: cell-based; assay type: cell-based; settings: for IC50: vs LPC 3μM, read-out: TRPV2 IC50 for antagonism or desensitization; for EC50: read-out: TRPV2 Potency EC50
T2 construct: expressed in transfected cells; host or cells: HEK293 (plasmid a gift from HB Bradshaw, Indiana University)
T2 sequence (Q9WUD2 1-761): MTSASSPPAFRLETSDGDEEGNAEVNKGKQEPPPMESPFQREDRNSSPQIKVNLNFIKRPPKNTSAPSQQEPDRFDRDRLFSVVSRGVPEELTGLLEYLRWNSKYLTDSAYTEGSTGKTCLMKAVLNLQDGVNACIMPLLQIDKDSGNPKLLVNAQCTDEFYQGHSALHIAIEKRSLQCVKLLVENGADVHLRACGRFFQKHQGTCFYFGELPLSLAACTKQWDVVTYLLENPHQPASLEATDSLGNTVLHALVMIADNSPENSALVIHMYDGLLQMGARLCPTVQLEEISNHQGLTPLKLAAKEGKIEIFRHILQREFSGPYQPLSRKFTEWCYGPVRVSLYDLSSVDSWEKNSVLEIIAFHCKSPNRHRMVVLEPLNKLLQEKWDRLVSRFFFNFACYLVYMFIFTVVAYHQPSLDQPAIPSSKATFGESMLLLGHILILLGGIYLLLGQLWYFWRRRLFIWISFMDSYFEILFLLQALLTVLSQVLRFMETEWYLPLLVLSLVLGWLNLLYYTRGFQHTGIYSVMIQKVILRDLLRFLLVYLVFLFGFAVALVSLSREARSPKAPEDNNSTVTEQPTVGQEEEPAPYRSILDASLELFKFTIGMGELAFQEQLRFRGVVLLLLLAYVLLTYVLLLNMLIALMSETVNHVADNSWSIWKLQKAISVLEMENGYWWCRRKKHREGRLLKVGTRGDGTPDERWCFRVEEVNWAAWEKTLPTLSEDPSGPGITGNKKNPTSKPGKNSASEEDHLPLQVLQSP

Rat recombinant TRPV4 = target: T3, Rat recombinant TRPV4 (Rattus norvegicus, UniProt Q9ERZ8); test: cell-based; assay type: cell-based; settings: for IC50: vs 4αPDD 1μM, read-out: TRPV4 IC50 for desensitization
T3 construct: expressed in transfected cells; host or cells: HEK293 (TRPV4-HEK-293, gift from HB Bradshaw, Indiana University)
T3 sequence (Q9ERZ8 whole entry): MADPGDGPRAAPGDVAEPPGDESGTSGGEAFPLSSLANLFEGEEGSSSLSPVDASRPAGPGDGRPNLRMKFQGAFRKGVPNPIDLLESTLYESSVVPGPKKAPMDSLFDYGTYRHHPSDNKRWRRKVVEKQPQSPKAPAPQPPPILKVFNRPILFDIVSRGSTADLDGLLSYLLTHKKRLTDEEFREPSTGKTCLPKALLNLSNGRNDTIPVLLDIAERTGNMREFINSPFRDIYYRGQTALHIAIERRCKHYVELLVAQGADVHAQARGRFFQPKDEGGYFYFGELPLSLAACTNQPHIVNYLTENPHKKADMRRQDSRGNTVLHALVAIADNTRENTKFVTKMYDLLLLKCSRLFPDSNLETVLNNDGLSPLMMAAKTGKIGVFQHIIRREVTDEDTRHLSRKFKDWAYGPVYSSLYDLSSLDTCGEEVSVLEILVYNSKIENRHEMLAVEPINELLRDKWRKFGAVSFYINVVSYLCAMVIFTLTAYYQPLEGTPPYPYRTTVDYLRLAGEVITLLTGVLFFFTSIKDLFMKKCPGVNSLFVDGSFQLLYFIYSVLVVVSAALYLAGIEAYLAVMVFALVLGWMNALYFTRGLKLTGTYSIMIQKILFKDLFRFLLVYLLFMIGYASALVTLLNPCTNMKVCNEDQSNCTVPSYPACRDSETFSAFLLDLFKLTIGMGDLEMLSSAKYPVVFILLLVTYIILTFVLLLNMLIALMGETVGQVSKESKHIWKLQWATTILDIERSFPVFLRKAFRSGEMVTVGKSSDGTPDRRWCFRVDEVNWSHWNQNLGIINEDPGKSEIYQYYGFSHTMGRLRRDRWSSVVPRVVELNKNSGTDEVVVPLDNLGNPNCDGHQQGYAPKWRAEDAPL

AT1 (h) = target: T4, AT1 (h) (Homo sapiens, UniProt P30556); test: CEREP panel; assay type: binding; settings: 10 µM
T4 construct: CEREP
T4 sequence (P30556 1-359): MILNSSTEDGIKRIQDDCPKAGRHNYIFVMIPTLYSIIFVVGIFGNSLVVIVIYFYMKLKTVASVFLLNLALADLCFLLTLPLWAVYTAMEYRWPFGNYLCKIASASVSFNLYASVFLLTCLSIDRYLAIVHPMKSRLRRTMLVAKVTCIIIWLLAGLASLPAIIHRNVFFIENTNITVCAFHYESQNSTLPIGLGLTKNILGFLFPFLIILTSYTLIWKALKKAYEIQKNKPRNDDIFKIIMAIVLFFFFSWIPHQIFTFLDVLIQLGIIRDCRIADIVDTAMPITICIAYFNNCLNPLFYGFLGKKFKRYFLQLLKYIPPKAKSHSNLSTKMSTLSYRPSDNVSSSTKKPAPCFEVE

mu (MOP) (h) = target: T5, mu (MOP) (h) (Homo sapiens, UniProt P35372); test: CEREP panel; assay type: binding; settings: 10 µM
T5 construct: CEREP (contract assay)
T5 sequence (P35372 whole entry): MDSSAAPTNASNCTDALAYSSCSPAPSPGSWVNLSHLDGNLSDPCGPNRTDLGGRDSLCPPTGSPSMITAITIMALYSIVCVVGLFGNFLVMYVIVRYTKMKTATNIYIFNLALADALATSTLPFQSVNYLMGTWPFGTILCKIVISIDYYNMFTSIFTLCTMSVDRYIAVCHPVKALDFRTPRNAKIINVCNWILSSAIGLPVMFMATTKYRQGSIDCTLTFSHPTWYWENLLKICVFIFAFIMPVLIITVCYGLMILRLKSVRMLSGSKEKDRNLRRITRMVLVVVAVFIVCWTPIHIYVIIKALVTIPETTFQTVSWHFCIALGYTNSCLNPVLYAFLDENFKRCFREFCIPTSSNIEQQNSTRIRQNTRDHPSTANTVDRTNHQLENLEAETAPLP

[1] = target: T6, norepinephrine transporter (h) (Homo sapiens, UniProt P23975); test: biochemical; assay type: binding; settings: 10 µM
T6 construct: CEREP (contract assay)
T6 sequence (P23975 whole entry): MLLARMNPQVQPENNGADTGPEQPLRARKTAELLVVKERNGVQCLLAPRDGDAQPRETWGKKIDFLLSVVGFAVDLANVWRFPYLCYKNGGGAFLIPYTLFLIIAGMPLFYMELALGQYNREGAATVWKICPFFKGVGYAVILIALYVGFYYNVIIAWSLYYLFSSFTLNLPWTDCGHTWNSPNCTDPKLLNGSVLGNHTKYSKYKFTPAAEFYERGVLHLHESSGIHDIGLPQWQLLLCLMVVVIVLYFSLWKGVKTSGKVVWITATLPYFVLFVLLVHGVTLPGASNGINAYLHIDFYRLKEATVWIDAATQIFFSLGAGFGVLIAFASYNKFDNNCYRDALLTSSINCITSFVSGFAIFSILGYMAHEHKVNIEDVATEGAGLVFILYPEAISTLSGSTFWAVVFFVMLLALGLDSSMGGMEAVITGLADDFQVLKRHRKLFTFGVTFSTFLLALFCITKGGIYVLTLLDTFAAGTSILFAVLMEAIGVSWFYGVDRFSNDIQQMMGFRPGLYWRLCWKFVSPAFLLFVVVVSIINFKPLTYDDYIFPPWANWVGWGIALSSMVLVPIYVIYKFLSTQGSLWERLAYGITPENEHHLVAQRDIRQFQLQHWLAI

PPARα (h) = target: T7, PPARα (h) (Homo sapiens, UniProt Q07869); test: CEREP panel; assay type: binding; settings: 10 µM
T7 construct: CEREP (contract assay)
T7 sequence (Q07869 1-468): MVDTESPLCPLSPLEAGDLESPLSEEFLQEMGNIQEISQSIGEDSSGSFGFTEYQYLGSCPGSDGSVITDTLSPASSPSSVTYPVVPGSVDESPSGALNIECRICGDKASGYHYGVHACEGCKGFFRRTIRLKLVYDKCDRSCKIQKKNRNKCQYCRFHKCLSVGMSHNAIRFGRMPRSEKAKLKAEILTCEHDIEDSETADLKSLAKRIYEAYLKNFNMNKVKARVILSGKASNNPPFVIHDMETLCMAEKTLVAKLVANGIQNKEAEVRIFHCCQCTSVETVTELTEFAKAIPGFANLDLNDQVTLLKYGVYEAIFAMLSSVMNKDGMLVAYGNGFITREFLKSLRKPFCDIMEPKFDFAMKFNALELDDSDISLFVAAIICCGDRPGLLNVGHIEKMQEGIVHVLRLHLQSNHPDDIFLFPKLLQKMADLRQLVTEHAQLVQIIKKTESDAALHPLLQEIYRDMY

PPARgamma (h) = target: T8, PPARgamma (h) (Homo sapiens, UniProt P37231); test: CEREP panel; assay type: binding; settings: 10 µM
T8 construct: CEREP (contract assay)
T8 sequence (P37231 1-505): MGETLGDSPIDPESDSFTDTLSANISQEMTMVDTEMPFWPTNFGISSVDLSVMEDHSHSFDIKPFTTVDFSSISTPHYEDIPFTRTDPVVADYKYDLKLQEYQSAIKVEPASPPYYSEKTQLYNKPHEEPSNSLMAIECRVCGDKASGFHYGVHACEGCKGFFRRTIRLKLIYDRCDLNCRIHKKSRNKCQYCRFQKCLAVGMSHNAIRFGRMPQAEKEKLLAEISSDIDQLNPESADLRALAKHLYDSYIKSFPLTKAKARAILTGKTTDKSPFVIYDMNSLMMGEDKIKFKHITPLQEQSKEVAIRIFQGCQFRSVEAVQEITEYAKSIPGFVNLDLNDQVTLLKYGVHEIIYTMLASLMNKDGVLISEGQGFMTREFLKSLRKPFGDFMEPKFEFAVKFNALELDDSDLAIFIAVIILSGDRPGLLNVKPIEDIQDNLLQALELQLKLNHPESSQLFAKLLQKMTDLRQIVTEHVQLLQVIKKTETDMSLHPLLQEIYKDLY

[2] = 1 μM
[3] = 1 μM; remark: listed apart in the source
[4] = i.v., mice; for C0: 1.0-2.0 mg/kg, extrapolated
[5] = logD distribution coefficient; settings: distribution coefficient
AR (h) = test: CEREP panel; assay type: binding, human; settings: 10 µM

T1 sequence (P21554 whole entry): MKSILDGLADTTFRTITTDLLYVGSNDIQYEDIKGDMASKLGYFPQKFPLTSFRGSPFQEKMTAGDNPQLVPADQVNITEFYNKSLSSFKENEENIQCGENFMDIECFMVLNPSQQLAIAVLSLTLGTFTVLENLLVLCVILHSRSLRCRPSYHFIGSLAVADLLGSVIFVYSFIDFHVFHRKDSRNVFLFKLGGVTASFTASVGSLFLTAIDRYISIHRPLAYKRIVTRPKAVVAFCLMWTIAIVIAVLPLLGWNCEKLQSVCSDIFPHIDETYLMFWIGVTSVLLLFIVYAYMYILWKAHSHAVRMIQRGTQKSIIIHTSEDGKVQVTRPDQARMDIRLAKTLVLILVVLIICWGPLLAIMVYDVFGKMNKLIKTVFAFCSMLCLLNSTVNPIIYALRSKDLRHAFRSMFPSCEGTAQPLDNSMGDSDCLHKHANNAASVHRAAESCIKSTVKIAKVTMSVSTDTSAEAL

| SMILES | Emax ± SEM pERK hCB1R (hCB1R) | TRPV2 Efficacy (% ionomycin 4μM) (Rat recombinant TRPV2) [%] | IC50 (Rat recombinant TRPV2) [µM] | TRPV4 Efficacy (% ionomycin 4μM) (Rat recombinant TRPV4) [%] | IC50 (Rat recombinant TRPV4) [µM] | % inhibition AT1 (h) (AT1 (h)) [%] | % inhibition mu (MOP) (h) (mu (MOP) (h)) [%] | % inhibition norepinephrine transporter (h) [1] [%] | % inhibition PPARα (h) (PPARα (h)) [%] | % inhibition PPARgamma (h) (PPARgamma (h)) [%] | CL microsomes human [2] [µL/min/mg protein] | CL hepatocytes mouse [3] [µL/min/mio cells] | AUCinf [4] [ng·h/mL] | AUCinf/dose [4] [kg·ng·h/mL/mg] | AUClast [4] [ng·h/mL] | CL [4] [mL/min/kg] | T1/2 [4] | C0 [4] [ng/mL] | logD [5] | % inhibition AR (h) (AR (h)) [%] | further results |
| --- | --- | --- | --- | --- | --- | --- | --- | --- | --- | --- | --- | --- | --- | --- | --- | --- | --- | --- | --- | --- | --- |
| CCCC(C)(C)c1ccc2c(c1)OC(C)(C)[C@@H]1CC=C(C)C[C@@H]21 [JWH133] | 10 ± 3 | < 10 | > 100 | 13.6 | > 100 | 7 | 7 | -9 | -25 | -5 | 38 | 9.8 | 1750 | 1090 | 1650 | 15.3 | 1.1 h and 1 h | 3870 | > 3 | – | pEC50 ± SEM pERK hCB1R (hCB1R): < 4; EC50 (Rat recombinant TRPV4; read-out: TRPV4 Potency EC50): 12 µM; Vss [4]: 1.32 L/kg and 1 to 3 L/kg |
| COc1ccc(C(=O)c2c(C)n(CCN3CCOCC3)c3cc(I)ccc23)cc1 [AM630] | – | < 10 | 35.6 | < 10 | 3.2 ± 0.1 | 17 | 21 | 38 | -17 | 99 | 82 | 101 | 197 | 197 | 177 | 85 | 2.9 h | 69.8 | 3.82 | -7 | – |
| Cc1ccc2c(c1)Cc1c(C(=O)NN3CCCCC3)nn(-c3ccc(Cl)cc3Cl)c1-2 [Gp-1a] | 2 ± 3 | < 10 | 11.9 | < 10 | 2.2 ± 0.1 | 20 | 102 | 59 | -9 | 86 | 13 | 78 | 825 | 412 | 658 | 40 | 3.5 h | 351 | – | -8 | – |
| Cc1c(C(=O)c2cccc3ccccc23)c2cccc3c2n1[C@H](CN1CCOCC1)CO3 [WIN55212-2] | – | 17.0 | 62 | < 10 | 16.1 ± 1.7 | 29 | 21 | 33 | -4 | 39 | 194 | 568 | – | – | – | – | – | – | 3.67±0.03 | 8 | EC50 (Rat recombinant TRPV2): 14.8 µM |
| CN1CCCC[C@H]1Cn1cc(C(=O)c2cc([N+](=O)[O-])ccc2I)c2ccccc21 [(S)-AM1241] | 17 ± 3 | 11.6 | 20.6 | < 10 | 8.6 ± 0.3 | 1 | 46 | 26 | -18 | 23 | 152 | 251 | 276 | 145 | 269 | 115 | 1.4 h | 413 | 3.64 | 1 | pEC50 ± SEM pERK hCB1R (hCB1R): < 4; EC50 (Rat recombinant TRPV2): 5 µM |
